# Reference: PubChem BioAssay AID1117319 (Southern Research Institute, 2015)
# pIC50: −log10 of the molar value. Records with an inconclusive call do not appear.
# Molecular target: Virion infectivity factor (Human immunodeficiency virus type 1 group M subtype B (isolate BH10)) + Virion infectivity factor (Human immunodeficiency virus type 1 group M subtype B (isolate BRU/LAI)) + Virion infectivity factor (Human immunodeficiency virus type 1 group M subtype B (isolate PCV12)) + Virion infectivity factor (Human immunodeficiency virus type 1 group M subtype B (isolate HXB2)) + DNA dC->dU-editing enzyme APOBEC-3G (Homo sapiens) (UniProt P69720+P69721+P69722+P69723+Q9HC16)
# Experiment: inhibitors of Vif binding to APOBEC3G peptide, primary screen, biochemical, TR-FRET, GST-Vif 1-94, biotin-A3G peptide, dose response retest (AID 1117319);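 further: Vif residues 1-94 fused to GST binding biotinylated APOBEC3G peptide 110-148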
row,Compound,pIC50
1,CN(C)S(=O)(=O)c1cccc(NC(=S)N/N=C/c2ccc(O)c(O)c2O)c1,5.73
2,COc1ccc(/C=N/NC(=O)CNc2n[nH]c(=O)[nH]c2=O)cc1OC,4.37
3,O=C1C=CC(=O)c2c(O)c(CO)c(CO)c(O)c21,6.33
4,Cc1noc(/C=C/c2ccco2)c1S(=O)(=O)N1CCC(C(=O)N2c3ccccc3CC2C)CC1 (stereo unspecified),4.92
5,CC1(C)C/C(=C(/C#N)C(N)=O)CCO1,4.09
6,O=C1NC(=S)N(c2ccc(F)cc2)C(=O)/C1=C\c1ccoc1,4.73
7,COC(=O)c1ccc(COc2ccc(/C=N/Nc3cccc(C(=O)O)c3)cc2)cc1,4.20
8,O=C1NC(=O)N(Cc2ccc(F)cc2)C(=O)/C1=C\C=C\c1ccco1,4.72
9,CCC(C)C(NC(=O)[C@@H](NC(=O)c1ccccc1F)C(C)C)C(=O)OC (stereo partly specified),5.23
10,O=C(NCCN1CCN(c2ccccc2)CC1)C1CCN(S(=O)(=O)c2cccc3nonc23)CC1,4.37
11,CN(C(=O)COC(=O)c1cc(-c2ccco2)nc2ccccc12)C1CCS(=O)(=O)C1 (stereo unspecified),5.84
12,COC(=O)c1cnn2c(C(F)(F)F)cc(-c3ccco3)nc12,5.15
13,CS(=O)(=O)N1CCCC(C(=O)NCCCN2CCC(Cc3ccccc3)CC2)C1 (stereo unspecified),4.07
14,O=C(Nc1ccccc1F)c1coc(=O)c(Br)c1,5.15
15,Nc1cc(C(=O)O)ccc1N1CCCCC1,4.82
16,COc1ccc(NC(=O)N2c3ccc(OC)cc3C(C)=CC2(C)C)cc1,5.49

row,Compound,pIC50
1,CCc1ccc2nc(N3CCN(C)CC3)c(C#N)cc2c1,4.47
2,COc1ccc(Nc2ccc(OC)cc2)cc1,5.17
3,Cc1nc2cc(N=NC3=C(O)CCCC3=O)ccc2s1,5.89
4,O=C(Cn1cnc2c(nnn2Cc2ccc(F)cc2)c1=O)NCc1ccco1,4.02
5,CC(=O)NN1C(=O)/C(=C/c2ccc(Br)o2)SC1=S,4.93
6,CCN(CC)c1ccc(NC2=C(Cl)C(=O)c3ccccc3C2=O)cc1,5.42
7,COc1ccc(N=C2S/C(=C\c3ccc(C)o3)C(=O)N2CC(C)C)cc1,4.40
8,NNc1ccc([N+](=O)[O-])c2[nH][nH]c(=O)c12,5.71
9,O=C(O)c1cccc(CSc2nnc(COc3ccccc3)o2)c1,4.05
10,Oc1ccc(N=Cc2ccc(OCc3ccccc3)cc2)cc1,5.68
11,CCOC(=O)c1c(NC(=O)c2cccs2)sc(C)c1C,4.48
12,NC(CO)C(=O)NNCc1ccc(O)c(O)c1O (stereo unspecified),5.83
13,CCCN1C(=O)S/C(=C\c2ccc(N3CCOCC3)cc2C)C1=O,4.63
14,COc1cccc(=O)c2c(C)n(-c3ccc(C(=O)O)cc3)c(C)c12,5.49
15,CCNC(=O)COC(=O)c1cc(-c2ccco2)nc2ccccc12,5.41
